Activity calls are given as the source filed them. The rule behind the calls is not given here.
Key:
HeLa [1] = test: Cytotoxicity against human deferoxamine treated HeLa cells assessed as decrease of cell viability after 24 hrs by MTT assay relative to control; type: functional
[2] = target: Hypoxia-inducible factor 1-alpha (Homo sapiens) (UniProt Q16665); test: Effect on stabilization of HIF-1alpha in deferoxamine treated human HeLa cells at 50 to 500 uM by Western blot analysis; type: cell-based
[3] = target: T1, Histone acetyltransferase p300/Hypoxia-inducible factor 1-alpha (Homo sapiens, UniProt Q09472+Q16665); test: Inhibition of human C-terminal activation domain of HIF-1alpha/CH1 domain of GST-p300 interaction using F-786-826 by fluorescence polarization based assay; type: protein-complex assay
HeLa [4] = test: Cytotoxicity against human deferoxamine treated HeLa cells assessed as decrease of cell viability after 48 hrs by MTT assay; type: functional, cell-based
[5] = target: Hypoxia-inducible factor 1-alpha (Homo sapiens) (UniProt Q16665); test: Inhibition of HIF-1alpha in deferoxamine treated human HeLa cells assessed as reduction of VEGF mRNA level at 100 uM after 5 hrs by RT-PCR analysis; type: cell-based
[6] = target: T1, Histone acetyltransferase p300/Hypoxia-inducible factor 1-alpha; test: Inhibition of deferoxamine-induced HIF-1alpha/resin-bound GST-p300 interaction human HeLa cells using coomasie blue staining by GST pull-down assay; type: cell-based
Target sequence in this assay (Q09472 2-2414 limits assumed): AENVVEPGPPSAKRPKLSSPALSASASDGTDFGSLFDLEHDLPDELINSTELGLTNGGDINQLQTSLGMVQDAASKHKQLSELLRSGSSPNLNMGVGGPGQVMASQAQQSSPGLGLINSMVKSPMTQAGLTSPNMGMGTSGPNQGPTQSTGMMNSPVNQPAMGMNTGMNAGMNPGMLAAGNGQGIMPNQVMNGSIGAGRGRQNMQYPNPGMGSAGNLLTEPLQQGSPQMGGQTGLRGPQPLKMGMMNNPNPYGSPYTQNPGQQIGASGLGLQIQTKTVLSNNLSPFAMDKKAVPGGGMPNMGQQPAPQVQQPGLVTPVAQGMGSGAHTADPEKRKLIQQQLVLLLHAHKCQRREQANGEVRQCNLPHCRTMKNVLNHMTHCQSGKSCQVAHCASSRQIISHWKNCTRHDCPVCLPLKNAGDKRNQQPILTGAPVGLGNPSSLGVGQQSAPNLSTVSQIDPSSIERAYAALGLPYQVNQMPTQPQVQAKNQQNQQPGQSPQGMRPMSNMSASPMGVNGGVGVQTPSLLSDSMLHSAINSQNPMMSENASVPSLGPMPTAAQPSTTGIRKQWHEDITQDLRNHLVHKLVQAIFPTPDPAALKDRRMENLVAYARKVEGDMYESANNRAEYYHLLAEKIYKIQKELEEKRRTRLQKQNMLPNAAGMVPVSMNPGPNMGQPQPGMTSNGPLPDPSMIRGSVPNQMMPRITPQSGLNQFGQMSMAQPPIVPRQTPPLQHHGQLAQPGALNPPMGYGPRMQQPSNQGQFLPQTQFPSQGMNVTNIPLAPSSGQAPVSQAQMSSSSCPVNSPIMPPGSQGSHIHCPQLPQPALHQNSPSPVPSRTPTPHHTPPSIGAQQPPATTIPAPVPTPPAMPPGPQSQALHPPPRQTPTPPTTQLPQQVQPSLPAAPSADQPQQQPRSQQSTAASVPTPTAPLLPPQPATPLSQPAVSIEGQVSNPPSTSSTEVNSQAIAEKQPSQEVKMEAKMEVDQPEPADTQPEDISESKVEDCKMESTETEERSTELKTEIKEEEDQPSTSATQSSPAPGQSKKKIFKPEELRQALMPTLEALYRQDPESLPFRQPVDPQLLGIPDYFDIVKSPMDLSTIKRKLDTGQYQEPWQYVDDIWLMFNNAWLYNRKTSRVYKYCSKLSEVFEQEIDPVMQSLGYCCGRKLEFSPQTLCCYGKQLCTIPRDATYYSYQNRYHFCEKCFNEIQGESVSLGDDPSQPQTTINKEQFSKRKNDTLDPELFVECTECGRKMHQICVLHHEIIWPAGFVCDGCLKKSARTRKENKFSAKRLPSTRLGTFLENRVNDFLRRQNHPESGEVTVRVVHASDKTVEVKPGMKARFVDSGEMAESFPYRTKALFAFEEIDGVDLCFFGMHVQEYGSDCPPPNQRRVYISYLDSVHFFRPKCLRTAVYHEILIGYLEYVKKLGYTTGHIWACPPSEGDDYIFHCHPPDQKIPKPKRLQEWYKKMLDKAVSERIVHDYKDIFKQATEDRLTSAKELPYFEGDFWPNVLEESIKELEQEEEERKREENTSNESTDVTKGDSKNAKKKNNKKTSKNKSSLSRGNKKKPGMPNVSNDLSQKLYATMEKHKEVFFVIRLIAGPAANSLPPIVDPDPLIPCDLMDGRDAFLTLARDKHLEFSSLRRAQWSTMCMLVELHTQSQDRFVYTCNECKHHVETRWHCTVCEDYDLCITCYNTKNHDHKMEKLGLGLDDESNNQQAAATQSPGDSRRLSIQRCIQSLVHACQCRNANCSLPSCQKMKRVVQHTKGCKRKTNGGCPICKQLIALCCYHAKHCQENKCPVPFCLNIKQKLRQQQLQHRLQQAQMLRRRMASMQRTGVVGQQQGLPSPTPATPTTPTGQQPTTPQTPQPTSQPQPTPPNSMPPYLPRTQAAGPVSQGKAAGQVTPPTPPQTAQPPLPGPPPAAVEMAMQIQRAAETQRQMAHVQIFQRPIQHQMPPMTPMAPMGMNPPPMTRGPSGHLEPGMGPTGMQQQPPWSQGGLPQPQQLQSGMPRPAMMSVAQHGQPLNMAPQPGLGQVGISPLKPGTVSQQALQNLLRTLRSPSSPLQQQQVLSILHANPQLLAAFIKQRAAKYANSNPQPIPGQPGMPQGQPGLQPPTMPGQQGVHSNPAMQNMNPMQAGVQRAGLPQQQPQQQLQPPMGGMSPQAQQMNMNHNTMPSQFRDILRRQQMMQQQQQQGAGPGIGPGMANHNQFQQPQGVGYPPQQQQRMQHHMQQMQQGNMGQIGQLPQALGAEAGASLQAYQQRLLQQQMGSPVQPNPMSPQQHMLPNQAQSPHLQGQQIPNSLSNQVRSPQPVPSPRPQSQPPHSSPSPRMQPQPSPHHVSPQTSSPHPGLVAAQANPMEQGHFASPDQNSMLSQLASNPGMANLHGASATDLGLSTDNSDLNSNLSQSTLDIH
Target sequence in this assay (Q16665 whole entry partner, the tested form may be a part): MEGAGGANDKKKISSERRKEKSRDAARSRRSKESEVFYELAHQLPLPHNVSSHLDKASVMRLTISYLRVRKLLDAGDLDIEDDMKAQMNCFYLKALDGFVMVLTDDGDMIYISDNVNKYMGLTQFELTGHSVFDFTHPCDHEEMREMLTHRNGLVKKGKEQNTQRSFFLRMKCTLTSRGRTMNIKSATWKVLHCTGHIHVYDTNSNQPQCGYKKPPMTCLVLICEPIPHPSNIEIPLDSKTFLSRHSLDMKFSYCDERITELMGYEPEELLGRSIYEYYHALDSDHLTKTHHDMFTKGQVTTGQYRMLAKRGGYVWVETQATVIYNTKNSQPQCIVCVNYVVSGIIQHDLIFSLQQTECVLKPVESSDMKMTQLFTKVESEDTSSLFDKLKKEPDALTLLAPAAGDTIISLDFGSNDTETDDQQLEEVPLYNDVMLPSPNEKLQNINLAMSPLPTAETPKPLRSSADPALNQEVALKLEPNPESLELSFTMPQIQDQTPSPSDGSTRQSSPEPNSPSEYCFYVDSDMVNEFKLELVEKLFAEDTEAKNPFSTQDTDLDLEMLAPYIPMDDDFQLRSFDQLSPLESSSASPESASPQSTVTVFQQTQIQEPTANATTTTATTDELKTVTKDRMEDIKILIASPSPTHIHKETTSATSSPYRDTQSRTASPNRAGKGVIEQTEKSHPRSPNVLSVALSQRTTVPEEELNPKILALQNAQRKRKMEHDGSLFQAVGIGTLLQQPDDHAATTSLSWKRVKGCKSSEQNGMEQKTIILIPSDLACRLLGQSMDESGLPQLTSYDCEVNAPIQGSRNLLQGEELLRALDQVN

[7] = target: T1, Histone acetyltransferase p300/Hypoxia-inducible factor 1-alpha; test: Inhibition of human C-terminal activation domain of HIF-1alpha/CH1 domain of GST-p300 interaction using F-786-826 at 200 uM by fluorescence polarization based assay; type: protein-complex assay
Target sequence in this assay (Q09472 2-2414 limits assumed): as the sequence (Q09472 2-2414 limits assumed) above
Target sequence in this assay (Q16665 whole entry partner, the tested form may be a part): as the sequence (Q16665 whole entry partner, the tested form may be a part) above

Hypoxia-inducible factor 1-alpha (Homo sapiens), sequence (Q16665 whole entry, looked up, the tested form may be a part): as the sequence (Q16665 whole entry partner, the tested form may be a part) above

Activity [2]: inactive | IC50 [3]: 107 µM | inhibition [5]: Active | inhibition [6]: Active | inhibition [7]: 80%
Structure (SMILES): CC(C)Cc1cc(CNC(=O)N2CCN(CC(=O)Nc3ccccc3Cl)CC2)nn1-c1ccccc1.Cl
Activity (HeLa [1]): 50% | Activity (HeLa [4]): Dose-dependent effect
